Results reported in US9096601B2 (CSPC Zhongqi Pharmaceutical Technology (Shijiazhuang) Co., …, priority 2010, dated 2015).

Legend:
Assay in all cases: In-vitro tumor cell proliferation inhibition, MTT
Format in all cases: cell-based, human
[1] = system: chronic granulocytic leukemia cell strain K562; conditions: 72 hours
Source text: (§1) The object of this assay was to test the inventive compounds for the inhibitory activity of in-vitro tumor cell proliferation. The MTT (tetreamethyl-azo-zole-salt) colorimetric method was used in this assay.
(§2) Human non-small cell lung carcinoma cell strains HCC827, PC-9, H1975 (EGFR L858R/T790M mutation) and H292 (EGFR WT), and other tumor type cell strains, including human acute myelogenous leukemia cell strain MV4-11, human chronic granulocytic leukemia cell strain K562, human squamous cell carcinoma cell strain A431, human breast carcinoma cell strains MDA-MB-468 and BT 474, human colon cancer cell strains SW480, HCT116 and SW620, human liver cancer cell strain Hep G2, human gastric cancer cell strain MK-45, and human malignant melanoma cell strain A375 used in this assay were all purchased from ATCC company, USA and kept in the laboratory. All of the above-mentioned non-small cell lung carcinoma cell strains and the breast carcinoma cell strain BT 474 were cultured with a RPMI-1640 complete culture medium containing 10% fetal bovine serum, 100 U/ml penicillin and 100 μg/ml streptomycin under 5% CO2 and at 37° C. The other cell strains were cultured with a DMEM complete culture medium containing 10% fetal bovine serum (having a MV4-11 cell content of 20%), 100 U/ml penicillin and 100 μg/ml streptomycin under 5% CO2 and 37° C.
(§3) A cell suspension having a cell concentration of 1-2×10^4 cells/ml was treated with a complete cell culture solution to adjust the cell concentration, wherein the cell concentrations for HCC827 and MV4-11 were adjusted to 6×10^4 cells/ml and 1×10^5 cells/ml respectively. The cell suspension was inoculated in a 96-well plate with 200 μl cell suspension/well and cultured overnight. Next day, the supernatant was drawn off and discarded. Then, the cells were treated with the tested compounds in a gradient concentration respectively. In the meanwhile, a negative control group free of the drug substance and an isovolumetric solvent control group (having a DMSO concentration of 1%) were used. The triplicate wells were used for each of dose groups. The culturing was conducted at 37° C. under 5% CO2. After 72 hours, […] having a concentration of 5 mg/ml was added to each of wells. The culturing was further conducted for 2-4 hours. The supernatant was discarded. Then […] was added to each of wells. The contents in the well were mixed homogenously by oscillation for 15 minutes. The absorbance (A) value was measured with a microplate reader at λ=570 nm (the A value is in the direct proportion to the number of living cells) and averaged. The relative cell proliferation inhibitory rate is (A570 control-group−A570 dose-group)/A570 control-group×100%. The assay was repeated for at least three times. The data was expressed as number average. The statistical data were analyzed using t-test. P<0.05 was considered significant. The cell proliferation inhibition of the following compounds was expressed as IC50 or inhibitory rate.

[2] = system: acute myelogenous leukemia cell strain MV4-11; conditions: 72 hours
Source text: as §1, §2, §3

[3] = system: colon cancer cell strain SW620; conditions: 72 hours
Source text: as §1, §2, §3

[4] = system: breast carcinoma cell strain BT474; conditions: 72 hours
Source text: as §1, §2, §3

[5] = system: breast carcinoma cell strain MDA-MB-468; conditions: 72 hours
Source text: as §1, §2, §3

[6] = system: colon cancer cell strain HCT116; conditions: 72 hours
Source text: as §1, §2, §3

[7] = system: colon cancer cell strain SW480; conditions: 72 hours
Source text: as §1, §2, §3

[8] = system: malignant melanoma cell strain A375; conditions: 72 hours
Source text: as §1, §2, §3

[9] = system: gastric cancer cell strain MK-45; conditions: 72 hours, read-out: MK45 (IC50)
Source text: as §1, §2, §3

[10] = system: liver cancer cell strain Hep G2; conditions: 72 hours, read-out: HEPG2 (IC50)
Source text: as §1, §2, §3

[11] = system: squamous cell carcinoma cell strain A431; conditions: 72 hours
Source text: as §1, §2, §3

[12] = system: non-small cell lung carcinoma cell strain H1975 (EGFR L858R/T790M mutation); conditions: 72 hours
Experimental: as §1
(§4) All of the above-mentioned non-small cell lung carcinoma cell strains and the breast carcinoma cell strain BT 474 were cultured with a RPMI-1640 complete culture medium containing 10% fetal bovine serum, 100 U/ml penicillin and 100 μg/ml streptomycin under 5% CO2 and at 37° C. The other cell strains were cultured with a DMEM complete culture medium containing 10% fetal bovine serum (having a MV4-11 cell content of 20%), 100 U/ml penicillin and 100 μg/ml streptomycin under 5% CO2 and 37° C.
as §3

[13] = system: non-small cell lung carcinoma cell strain H292 (EGFR WT); conditions: 72 hours
Experimental: as §1, §4, §3

[14] = system: non-small cell lung carcinoma cell strain PC-9 (EGFR delE746-A750 deletion mutation); conditions: 72 hours
Experimental: as §1, §4, §3

[15] = system: non-small cell lung carcinoma cell strain HCC827; conditions: 72 hours
Experimental: as §1, §4, §3

SMILES	IC50 [1] [nM]	IC50 [2] [nM]	IC50 [3] [nM]	IC50 [4] [nM]	IC50 [5] [nM]	IC50 [6] [nM]	IC50 [7] [nM]	IC50 [8] [nM]	IC50 [9] [nM]	IC50 [10] [nM]	IC50 [11] [nM]	IC50 [12] [nM]	IC50 [13] [nM]	IC50 [14] [nM]	IC50 [15] [nM]
CN1CCN(c2ccc(Nc3ncc4nc(Nc5cc(F)ccc5F)n(C5CCCC5)c4n3)cc2)CC1 [Compounds 8-55]	88	682	2970	456	2180	6550	5320	2770	1720	4680	198	323	> 10000	1	0.2
COCCOc1ccc(Nc2ncc3nc(Nc4ccccc4)n(C4CCCC4)c3n2)cc1 [Compounds 8-56]	> 10000	4430	> 10000	> 10000	> 10000	> 10000	> 10000	> 10000	> 10000	> 10000	> 10000	> 10000	81	7	0.6
CN1CCN(c2ccc(Nc3ncc4nc(Nc5cc(Cl)c(Cl)cc5Cl)n(C5CCCC5)c4n3)cc2)CC1 [Compounds 8-57]	352	6160	8370	> 10000	> 10000	7860	9760	> 10000	4590	> 10000	5770	> 10000	752	177	28
CCN1CCN(Cc2ccc(Nc3ncc4nc(Nc5ccccc5)n(C5CCCC5)c4n3)cc2)CC1 [Compounds 8-59]	111	99.8	1330	1100	6840	5720	4750	1200	808	> 10000	497	248	3.3	2.1	0.2
